#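 Compound exposure: 48 hours, 5 concentrations, 96-well plates. TGI denotes the concentration required for complete inhibition of growth.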
# Key:
# Assay in all cases: NCI anticancer screen, dose series, 48 h
# [1] = tested on: SK-MEL-28 melanoma
# [2] = tested on: DLD-1 colon
# [3] = tested on: U251 CNS
# [4] = tested on: M14 melanoma
# [5] = tested on: OVCAR-3 ovarian
# [6] = tested on: UACC-62 melanoma
# [7] = tested on: NCI-H226 lung
# [8] = tested on: SF-539 CNS
# [9] = tested on: UO-31 renal
# [10] = tested on: RPMI-8226 leukemia
# [11] = tested on: SK-MEL-5 melanoma
# [12] = tested on: SK-OV-3 ovarian
# [13] = tested on: UACC-257 melanoma
# [14] = tested on: LOX IMVI melanoma
# [15] = tested on: M19-MEL melanoma
# [16] = tested on: HOP-18 NSCLC
# [17] = tested on: SK-MEL-2 melanoma
# [18] = tested on: TK-10 renal
# [19] = tested on: SNB-19 CNS
# [20] = tested on: RXF 393 renal
# [21] = tested on: SNB-75 CNS
# [22] = tested on: DMS 114 small cell lung
# [23] = tested on: CCRF-CEM leukemia
# [24] = tested on: HL-60(TB) leukemia
# [25] = tested on: MOLT-4 leukemia
# [26] = tested on: OVCAR-5 ovarian
# [27] = tested on: SF-295 CNS
# [28] = tested on: A498 renal
# [29] = tested on: KM20L2 colon
# [30] = tested on: DMS 273 small cell lung
# [31] = tested on: HCC-2998 colon
# [32] = tested on: HT29 colon
# [33] = tested on: HCT-15 colon
# [34] = tested on: SNB-78 CNS
# [35] = tested on: HCT-116 colon
# [36] = tested on: EKVX NSCLC
# [37] = tested on: SF-268 CNS
# [38] = tested on: MALME-3M melanoma
# [39] = tested on: KM12 colon
# [40] = tested on: K-562 leukemia
# [41] = tested on: HOP-62 NSCLC
# [42] = tested on: XF 498 CNS
# [43] = tested on: 786-0 renal
# [44] = tested on: HOP-92 NSCLC
# [45] = tested on: COLO 205 colon
# [46] = tested on: NCI-H522 lung
# [47] = tested on: A549 NSCLC
# [48] = tested on: IGROV1 ovarian
# [49] = tested on: ACHN renal
# [50] = tested on: SN12C renal
# [51] = tested on: NCI-H23 lung
# [52] = tested on: OVCAR-8 ovarian
# [53] = tested on: SR leukemia
# [54] = tested on: SW-620 colon
# [55] = tested on: LXFL 529 NSCLC
# [56] = tested on: OVCAR-4 ovarian
# [57] = tested on: CAKI-1 renal
# [58] = tested on: NCI-H460 lung
smiles,measurement,setting,value
COc1ccc2c(c1)C(=O)c1ccc(OC)cc1C2=S,TGI,[1],> 100 µM
same,TGI,[2],> 100 µM
same,TGI,[3],61.7 µM
same,TGI,[4],> 100 µM
same,TGI,[5],> 100 µM
same,TGI,[6],> 100 µM
same,TGI,[7],> 100 µM
same,TGI,[8],> 100 µM
same,TGI,[9],> 100 µM
same,TGI,[10],> 100 µM
same,TGI,[11],> 100 µM
same,TGI,[12],> 100 µM
same,TGI,[13],> 100 µM
same,TGI,[14],> 100 µM
same,TGI,[15],> 100 µM
same,TGI,[16],> 100 µM
same,TGI,[17],> 100 µM
same,TGI,[18],> 100 µM
same,TGI,[19],> 100 µM
same,TGI,[20],> 100 µM
same,TGI,[21],87.4 µM
same,TGI,[22],> 100 µM
same,TGI,[23],> 100 µM
same,TGI,[24],> 100 µM
same,TGI,[25],> 100 µM
same,TGI,[26],> 100 µM
same,TGI,[27],> 100 µM
same,TGI,[28],> 100 µM
same,TGI,[29],> 100 µM
same,TGI,[30],> 100 µM
same,TGI,[31],> 100 µM
same,TGI,[32],> 100 µM
same,TGI,[33],> 100 µM
same,TGI,[34],> 100 µM
same,TGI,[35],> 100 µM
same,TGI,[36],> 100 µM
same,TGI,[37],> 100 µM
same,TGI,[38],> 100 µM
same,TGI,[39],> 100 µM
same,TGI,[40],> 100 µM
same,TGI,[41],> 100 µM
same,TGI,[42],> 100 µM
same,TGI,[43],> 100 µM
same,TGI,[44],> 100 µM
same,TGI,[45],> 100 µM
same,TGI,[46],> 100 µM
same,TGI,[47],> 100 µM
same,TGI,[48],> 100 µM
same,TGI,[49],> 100 µM
same,TGI,[50],> 100 µM
same,TGI,[51],> 100 µM
same,TGI,[52],> 100 µM
same,TGI,[53],> 100 µM
same,TGI,[54],> 100 µM
O=C1C(c2ccccc2)=C(O)c2cccc3cccc1c23,TGI,[1],> 100 µM
same,TGI,[3],> 100 µM
same,TGI,[4],> 100 µM
same,TGI,[5],> 100 µM
same,TGI,[6],> 100 µM
same,TGI,[7],> 100 µM
same,TGI,[8],> 100 µM
same,TGI,[55],> 100 µM
same,TGI,[9],> 100 µM
same,TGI,[10],> 100 µM
same,TGI,[11],> 100 µM
same,TGI,[12],> 100 µM
same,TGI,[13],> 100 µM
same,TGI,[14],> 100 µM
same,TGI,[15],> 100 µM
same,TGI,[16],> 100 µM
same,TGI,[17],> 100 µM
same,TGI,[18],> 100 µM
same,TGI,[19],> 100 µM
same,TGI,[20],> 100 µM
same,TGI,[21],> 100 µM
same,TGI,[22],> 100 µM
same,TGI,[23],> 100 µM
same,TGI,[24],> 100 µM
same,TGI,[25],> 100 µM
same,TGI,[26],> 100 µM
same,TGI,[27],> 100 µM
same,TGI,[28],> 100 µM
same,TGI,[29],> 100 µM
same,TGI,[30],> 100 µM
same,TGI,[31],> 100 µM
same,TGI,[32],> 100 µM
same,TGI,[33],> 100 µM
same,TGI,[34],> 100 µM
same,TGI,[35],> 100 µM
same,TGI,[36],> 100 µM
same,TGI,[37],> 100 µM
same,TGI,[38],> 100 µM
same,TGI,[39],> 100 µM
same,TGI,[40],> 100 µM
same,TGI,[42],> 100 µM
same,TGI,[56],> 100 µM
same,TGI,[43],> 100 µM
same,TGI,[44],> 100 µM
same,TGI,[45],> 100 µM
same,TGI,[57],> 100 µM
same,TGI,[46],> 100 µM
same,TGI,[47],> 100 µM
same,TGI,[48],> 100 µM
same,TGI,[49],> 100 µM
same,TGI,[50],> 100 µM
same,TGI,[51],> 100 µM
same,TGI,[58],> 100 µM
same,TGI,[52],> 100 µM
same,TGI,[53],> 100 µM
same,TGI,[54],> 100 µM

# — PubChem BioAssay (NCI)
